Test results published in patent publication US20260131020A1, “IONIZABLE CATIONIC LIPID FOR RNA DELIVERY” (Arcturus Therapeutics, Inc., priority 2016, published 2026).

System: not listed separately
Assay: Titration of lipids to measure pKa
Type: physicochemical
Details: lipids titrated
Excerpt: The lipids were titrated to measure their pKa values.

pKa | Structure (SMILES)
6.1 | CCCCCC/C=C\COC(=O)CCCN(CCCC(=O)OC(CCCCCC)CCCCCCC)C(=O)SCCN(C)C (centres unmarked) [ATX-58]
6 | CCCCCC/C=C\COC(=O)CCCN(CCCC(=O)OC(CCCCCCC)CCCCCCCC)C(=O)SCCN(C)C (centres unmarked) [ATX-57]
6.1 | CCCCCC/C=C\COC(=O)CCCCCN(CCCC(=O)OC(CCCCCC)CCCCCC)C(=O)SCCN(C)C [ATX-84]
5.9 | CCCCCC/C=C\COC(=O)CCCN(CCCC(=O)OC(CCCCCCC)CCCCCCC)C(=O)SCCN(C)C [ATX-81]

System: mouse epo mRNA
Assay: In vivo EPO mRNA stability: epo mRNA levels after injection of lipid encapsulated mouse epo mRNA
Set-up: species or system Female Balb/c mice
Details: nanoparticles with the cationic lipid, i.v. tail vein, 0.03 and 0.1 mg/kg mRNA, blood at 6 hours; FIG. 14
Procedure: Levels of mRNA in plasma were measured and compared following injection of nanoparticles comprising different cationic lipids. Female Balb/c mice (6-8 week old) were used for evaluation of plasma erythropoietin (epo) levels in vivo following injection of lipid encapsulated mouse epo mRNA. All formulations were administered intravenously via tail vein injection at a dose of 0.03 and 0.1 mg/kg at a dosing volume of 5 ml/kg. Terminal blood collection was performed via cardiac puncture under 2% isoflurane at 6 hours after formulation injections. Blood was collected into 0.109 M citrate buffer tube and processed by centrifugation at 5000 rpm for 10 minutes. Serum was collected and epo mRNA levels were analyzed. Results are shown at FIG. 14.

Structure (SMILES) | epo mRNA levels compared with ATX-2
CCCCCC/C=C\COC(=O)CCCN(CCCC(=O)OC(CCCCCCC)CCCCCCCC)C(=O)SCCN(C)C (centres unmarked) [ATX-57] | substantial improvement over ATX-2
CCCCCC/C=C\COC(=O)CCCCCN(CCCC(=O)OC(CCCCCCC)CCCCCCC)C(=O)SCCN(C)C [ATX-83] | substantial improvement over ATX-2
CCCCCC/C=C\COC(=O)CCCCCN(CCCC(=O)OC(CCCCCC)CCCCCC)C(=O)SCCN(C)C [ATX-84] | substantial improvement over ATX-2
CCCCCC/C=C\COC(=O)CCCCCN(CCC(=O)OC(CCCCCCC)CCCCCCC)C(=O)SCCN(C)C [ATX-82] | substantial improvement over ATX-2
CCCCCC/C=C\COC(=O)CCCN(CCCC(=O)OC(CCCCCCCC)CCCCCCCC)C(=O)SCCN(C)C [ATX-87] | substantial improvement over ATX-2
CCCCCC/C=C\COC(=O)CCCN(CCCC(=O)OC(CCCCCC)CCCCCC)C(=O)SCCN(C)C [ATX-86] | substantial improvement over ATX-2
CCCCCC/C=C\COC(=O)CCCN(CCCC(=O)OC(CCCCCCC)CCCCCCC)C(=O)SCCN(C)C [ATX-81] | substantial improvement over ATX-2

System: Factor VII
Assay: In vivo mouse Factor VII siRNA knockdown (chromogenic assay of plasma Factor VII protein)
Set-up: species or system Female C57BL/6 mice
Details: Factor VII siRNA formulations, i.v. tail vein, both at 0.03 and 0.1 mg/kg, plasma at 48 hours; FIG. 15
Procedure: Using a liver-directed in vivo screen of the liposome libraries, a series of compounds were tested that facilitate high levels of siRNA mediated gene silencing in hepatocytes, the cells comprising the liver parenchyma. Factor VII, a blood clotting factor, is a suitable target gene for assaying functional siRNA delivery to liver. Because this factor is produced specifically in hepatocytes, gene silencing indicates successful delivery to parenchyma, as opposed to delivery to the cells of the reticulo-endothelial system (e.g., Kupffer cells). Furthermore, Factor VII is a secreted protein that can be readily measured in serum, obviating the need to euthanize animals. Silencing at the mRNA level can be readily determined by measuring levels of protein. This is because the protein's short half-life (2-5 hour). Compositions with siRNA directed to Factor VII were formulated with ATX-002, ATX-57, and ATX-58, and comparator sample phosphate-buffered saline (PBS). Female C57BL/6 mice (6-8 week old) were used for FVII siRNA knockdown (KD) experiments. […] Plasma was collected and Factor VII protein levels were analyzed by chromogenic assay (Biophen FVII, Aniara Corporation). A standard curve was constructed using samples from PBS-injected mice and relative Factor VII expression was determined by comparing treated groups to untreated PBS control.

Structure (SMILES) | Factor VII knockdown activity compared with ATX-002
CCCCCC/C=C\COC(=O)CCCN(CCCC(=O)OC(CCCCCC)CCCCCCC)C(=O)SCCN(C)C (centres unmarked) [ATX-58] | substantially more effective than ATX-002
CCCCCC/C=C\COC(=O)CCCN(CCCC(=O)OC(CCCCCCC)CCCCCCCC)C(=O)SCCN(C)C (centres unmarked) [ATX-57] | substantially more effective than ATX-002

System: epo protein
Assay: In vivo epo protein expression after delivery of lipid encapsulated mouse epo mRNA (epo ELISA)
Set-up: species or system Female Balb/c mice
Details: mouse epo mRNA nanoparticles, i.v. tail vein, at 0.1 mg/kg (so in the source), serum at 6 hours; FIG. 16
Procedure: Female Balb/c mice (6-8 week old) were used for evaluation of epo protein expression in vivo following delivery of lipid encapsulated mouse epo mRNA. All formulations were administered intravenously via tail vein injection at a dose of 0.03 and 0.1 mg/kg at a dosing volume of 5 mL/kg. Terminal blood collection was performed via cardiac puncture under 2% isoflurane at 6 hours after formulation injections. Blood was collected into 0.109 M citrate buffer tube and processed by centrifugation at 5000 rpm for 10 minutes. Serum was collected and epo protein levels were analyzed by epo ELISA assay (R&D systems). A standard curve was constructed using samples from PBS-injected mice and relative epo expression was determined by comparing treated groups to untreated PBS control.

Structure (SMILES) | epo expression compared with ATX-2
CCCCCC/C=C\COC(=O)CCCN(CCCC(=O)OC(CCCCCCC)CCCCCCCC)C(=O)SCCN(C)C (centres unmarked) [ATX-57] | substantially higher amounts
